In patent US20220273678A1 (priority 2020, published 2022):
“Also recorded” adds a separate entry of the source. Counter-ions that a name gives are not always drawn. Like-named read-outs stand apart in the source and are kept apart here.

What was measured:
SARS-CoV-2 = assay: microbe, parasite or virus in culture; assay type: cell-based
[1] = system: hACE2 HEK293T cells and ALI HAE cultures; conditions: 1000 nM
IL-6, IL-10 = assay type: cell-based, human
Calu3 cells = assay: XTT cell cytotoxicity assay in uninfected Calu3 cells; assay type: cell-based, human
Description: (§1) To measure cell viability to determine if there was any treatment-induced cytotoxicity, cells were plated and treated with drugs as described above. Cells were exposed to the same dilution series created for the in vitro efficacy studies. As above, vehicle-treated cells served as the 0% cytotoxicity control. After 24 h, cell viability was measured on a Synergy 2 Biotek microplate reader (Biotek Inc) via the XTT Cell Proliferation Assay Kit (ATCC® 30-1011K™) according to the manufacturer's protocol. Similar data were obtained in three independent experiments.

icSARS-CoV-2-mNG [2] = assay type: cell-based, SARS-CoV-2
uninfected cells = assay: XTT cell cytotoxicity assay in similarly treated uninfected cultures (Mito-TEMPO, 4F); assay type: cell-based; conditions: Mito-TEMPO 10-1000 nM
Description: as §1

icSARS-CoV-2-mNG [3] = assay type: cell-based, SARS-CoV-2; remark: listed apart in the source
Nrf2, Keap1, HO-1 = assay: Nrf2, Keap1 and HO-1 protein levels in Calu3 cells, flow cytometry; assay type: cell-based, human; conditions: for HO-1 protein levels: Calu3, 10 μM DMF, 100-1000 nM Mito-MES, Mito-MES with DMF, 0.25 μM Brusatol, 10 μM 4F; for protein levels of Keap (Keap1) / protein levels of Nrf2: infected and uninfected Calu3
[4] = system: IL-6, IL-1β, IL-8, IL-10, TNF-α; assay type: cell-based, human; conditions: 0.25 μM brusatol; for release of IL-6 from infected cells: 10 μM DMF, 10-100 μM DMF+100-1000 nM Mito-MES

CCCCCCCCCC[P+](c1ccccc1)(c1ccccc1)c1ccccc1.[Br-] [dTPP]
antiviral activity, viral replication by TCID50-assay (SARS-CoV-2; Calu3, dTPP 1000 nM): Antiviral activity was observed | cytotoxicity [1]: not cytotoxic | secretion / release of IL-6 (IL-6, IL-10): reduced subsequent release of IL-6 | cytotoxicity, XTT assay (Calu3 cells; uninfected Calu3, dTPP 1000 nM): not cytotoxic

CC1(C)CC(NC(=O)C[P+](c2ccccc2)(c2ccccc2)c2ccccc2)CC(C)(C)N1[O] [Mito-TEMPO]
antiviral activity against fluorescent SARS-CoV-2 (icSARS-CoV-2-mNG [2]): potent and similar antiviral activity | cytotoxicity, XTT cell cytotoxicity assay (uninfected cells): no observed cytotoxicity | antiviral activity against fluorescent SARS-CoV-2 (icSARS-CoV-2-mNG [3]): potent and similar antiviral activity

brusatol
percent of infected Calu3 cells positive for the N protein, flow cytometry (data not shown) (SARS-CoV-2; 10 nM Mito-MES+10 μM DMF, 0.25 μM brusatol): directly enhanced SARS-CoV-2 infection | effect of brusatol on the antiviral effect of DMF and Mito-MES (SARS-CoV-2; Calu3, 0.25 μM brusatol 24 h): inhibited the antiviral effect of both DMF alone and Mito-MES | release of progeny virus / SARS-CoV-2 replication, TCID50 (SARS-CoV-2; Calu3, 0.25 μM brusatol pretreatment): significantly increased SARS-CoV2 replication; also recorded: significantly increased subsequent release of progeny SARS-CoV-2 virus particles | Viral replication by flow cytometry at 48 hpi in Calu3 cells (SARS-CoV-2; Mito-MES 1000 nM, Brusatol 250 nM, Mito-MES 1000 nM+Brusatol 250 nM): 39.9% | HO-1 protein levels (Nrf2, Keap1, HO-1): increased the HO-1 protein levels | protein levels of Keap (Keap1) (Nrf2, Keap1, HO-1): increased protein levels of Keap | protein levels of Nrf2 (Nrf2, Keap1, HO-1): reduced protein levels of Nrf2 | effect of brusatol on the anti-inflammatory effect of Mito-MES (IL-6) ([4]; Calu3): inhibited the anti-inflammatory effect of Mito-MES | release of IL-6 from infected cells [4]: significantly increased subsequent release of IL-6

COC(=O)/C=C/C(=O)OC [DMF, dimethyl fumarate]
release of progeny SARS-CoV-2 virus particles, TCID50 assay (SARS-CoV-2; Calu3, 10 μM DMF pretreatment 24 h, alone or with 10-1000 nM Mito-MES): had anti-SARS-CoV-2 activity; also recorded: reduction in subsequent release of progeny SARS-CoV-2 virus particles | Viral replication by flow cytometry at 48 hpi in Calu3 cells (SARS-CoV-2; DMF 10 μM, Mito-MES 100 nM, Mito-MES 100 nM+DMF 10 μM, […]): 5.4% | Viral replication by flow cytometry at 48 hpi in Calu3 cells (SARS-CoV-2; DMF 100 μM, Mito-MES 100 nM+DMF 100 μM, control 9.3%): 2.1% | HO-1 protein levels (Nrf2, Keap1, HO-1): increased protein levels of heme oxygenase-1 (HO-1) | protein levels of Keap (Keap1) (Nrf2, Keap1, HO-1): reduced protein levels of the endogenous Nrf2 inhibitor, Keap1; also recorded: reduced protein levels of Keap | protein levels of Nrf2 (Nrf2, Keap1, HO-1): did not impact protein levels of Nrf2 | cytotoxicity, XTT cell cytotoxicity assay (Calu3 cells; 100 μM DMF, 24 h): cytotoxic | release of IL-6 from infected cells [4]: reduction in subsequent release of IL-6

COC1=C(OC)C(=O)C(C/C=C(\C)CC/C=C(\C)CC/C=C(\C)CC/C=C(\C)CC/C=C(\C)CC/C=C(\C)CC/C=C(\C)CC/C=C(\C)CC/C=C(\C)CCC=C(C)C)=C(C)C1=O [CoQ10, Coenzyme Q10]
secretion / release of IL-6 (IL-6, IL-10): reduced subsequent release of IL-6
